Source: paper PMC4199632, “Exploring the Anti-Cancer Activity of Novel Thiosemicarbazones Generated through the Combination of Retro-Fragments: Dissection of Critical Structure-Activity Relationships” (PLoS ONE, 2014)

Tests used:
[1] = system: HCT116 p53+/+ colon cancer cells; assay: Proliferation assay (MTS, 96 h); format: cell-based, human; details: Homo sapiens, HCT-116; 96 h incubation, MTS; mean ±SD (3 experiments)
Protocol: (§1) The human cancer cell types (neuroepithelioma (SK-N-MC), colon cancer (HCT116 with wild-type p53 (p53^+/+)), Burkitt's lymphoma (Raji) and cervical carcinoma (HeLa)) cells and normal human dermal fibroblasts (NHDF) were obtained from the American Type Culture Collection (ATCC, Manassas, VA, USA). HCT116 null p53 (p53^−/−) cells were obtained from the Maria Sklodowska-Curie Memorial Cancer Center and Institute of Oncology, Poland.
(§2) The SK-N-MC cells were cultured in minimum essential medium (MEM; Life Technologies, Grand Island, New York, USA) containing 10% (v/v) fetal bovine serum (FBS; Life Technologies), 1 mM sodium pyruvate (Life Technologies), 1% (v/v) non-essential amino acids (Life Technologies), 2 mM L-glutamine (Life Technologies), 100 U/mL penicillin (Life Technologies), 100 µg/mL streptomycin (Life Technologies) and 0.28 µg/mL fungizone (Bristol Myers Squibb Pharmaceuticals, Montreal, Canada). The HCT116 and NHDF cells were grown in Dulbecco's modified Eagle's medium (DMEM; Sigma-Aldrich) supplemented with 12% (v/v) heat-inactivated FBS (HCT116; Life Technologies) or 15% (v/v) FBS (NHDF; Life Technologies), 100 µg/mL of gentamicin (Polfa Warszawa S.A., Warsaw, Poland), 100 µg/mL of streptomycin (Polfa) and 100 U/mL of penicillin (Polfa). The Raji and HeLa cells were cultured in Roswell Park Memorial Institute medium (RPMI-1640; Sigma-Aldrich) with the addition of 10% (v/v) heat-inactivated FBS (Life Technologies) and the supplements described for SK-N-MC cells above. All cell lines were cultured under standard conditions at 37°C in a humidified atmosphere at 5% CO2 and were subcultured every 3–4 days as required.
(§3) The cells were seeded in 96-well plates (SK-N-MC: 1.5×10^4 cells/well; HeLa: 5.0×10^3 cells/well; Raji: 3.0×10^3 cells/well; HCT116: 3.5×10^3 cells/well; NHDF: 3.0×10^3 cells/well) 24 h prior to the addition of the novel compounds. The assays were performed using a 72 h (SK-N-MC, Raji, HeLa) or 96 h (HCT 116, NHDF) incubation period with the agents at 37°C. […] Additionally, DFO and Dp44mT were included as positive controls in all experiments as their activity is well characterized, [42], [50].
(§4) Chelator stock solutions were prepared in DMSO and diluted in media so that the final [DMSO] <0.05%. The results were expressed as a percentage of the control and the resulting IC50 values were calculated using GraphPad Prism 5 (GraphPad Software, Inc., La Jolla, CA, USA). The IC50 was defined as the concentration necessary to reduce the absorbance to 50% of the untreated control. Each individual compound was tested in triplicate in a single experiment, with each experiment being repeated three times. After incubation of HCT 116 and NHDF cells with the tested compounds, 20 µL of the CellTiter 96 Aqueous One Solution - MTS (Promega, Madison, WI, USA) solution was added to each well (with 100 µL of DMEM without phenol red) and incubated for 1 h/37°C. The optical density of the samples was analyzed at 490 nm.

[2] = system: HCT116 p53−/− colon cancer cells; assay: Proliferation assay (MTS, 96 h); format: cell-based, human; details: Homo sapiens, HCT-116, 96 h, 96 h incubation, MTS; mean ±SD (3 experiments)
Protocol: as §1, §2, §3, §4

[3] = system: Raji Burkitt's lymphoma cells; assay: Proliferation assay (MTT, 72 h); format: cell-based; details: Homo sapiens, 72 h incubation, mean ±SD (3 experiments)
Protocol: as §1, §2, §3, §4
(§5) MTT (3-[4,5-dimethylthiazol-2-yl]-2,5-diphenyltetrazolium bromide) was used to evaluate the anti-proliferative effects of the chelators in SK-N-MC and Raji cells. Following incubation with the investigated compounds, 10 µL of MTT (5 mg/mL in PBS; Sigma-Aldrich) was added to each well. After a 2 h (SK-N-MC) or 4 h (Raji) incubation, the plates were centrifuged, and the cells were lysed with 100 µL of 10% SDS-50% isobutanol in 0.01 M HCl (SK-N-MC) or DMSO (Raji). The absorbance was measured at 570 nm. The anti-proliferative effects of these novel agents on HeLa cells were estimated using crystal violet staining (0.5% crystal violet solution for 10 min). Finally, the wells were rinsed with water and the cells were lysed with 2% SDS. The optical density of the samples was analyzed at 595 nm.

[4] = system: SK-N-MC neuroepithelioma cells; assay: Proliferation assay (MTT, 72 h); format: cell-based; details: Homo sapiens, 72 h incubation, mean ±SD (3 experiments)
Protocol: as §1, §2, §3, §4, §5

[5] = system: HeLa cervical carcinoma cells; assay: Proliferation assay (crystal violet, 72 h); format: cell-based; details: Homo sapiens, 72 h incubation, mean ±SD (3 experiments)
Protocol: as §1, §2, §3, §4, §5

[6] = system: normal human dermal fibroblast (NHDF) cells; assay: Proliferation assay (MTS, 96 h), normal mortal cells; format: cell-based; details: Homo sapiens, NHDF, 96 h, 96 h incubation, mean ±SD (3 experiments)
Protocol: as §1, §2, §3, §4

[7] = Ascorbate oxidation assay (iron complexes); format: biochemical; details: iron complex; for Ascorbate oxidation (% of the control): FeIII 10 µM, ascorbate 100 µM
Protocol: The ability of the iron complexes of the novel ligands to mediate the oxidation of the physiological substrate, ascorbate, was examined using established methods, [18], [22], [52], [53]. Ascorbic acid (100 µM) was prepared immediately prior to each experiment and was incubated in the presence of Fe^III (10 µM; as FeCl3), the chelator (1–60 µM) and a 50-fold molar excess of citrate (500 µM). The absorbance at 265 nm was measured after 10 and 40 min and the difference in absorbance at these time points was calculated. The results of these experiments were expressed as iron-binding equivalents (IBE) due to the different denticity of the chelators examined. The chelators, Dp44mT, DFO and ethylenediaminetetraacetic acid (EDTA) were used as controls as the ability of their iron complexes to oxidize ascorbate has been extensively characterized, [15], [52], [53].
The ability of the iron complexes of the novel TSCs to catalyze the oxidation of the physiological substrate, ascorbate, was important to assess as redox cycling may play a critical role in their anti-proliferative activity, [15], [18], [52], [53]. Thus, the oxidation of ascorbate mediated by the iron complexes of series 1–6 were examined in comparison to the iron complexes of the control compounds, DFO, EDTA and Dp44mT, as the ability of the latter to oxidize ascorbate is well characterized, [15], [52], [53], [68]. The results were expressed as a percentage of the control (no chelator) at iron-binding equivalents (IBEs) of 0.1 (excess “free” iron), 1 (iron-chelator complexes with a fully filled coordination sphere), or 3 (excess free chelator), due to the different denticity of the chelators examined (Fig. 10).
Figure 10 Effect of the iron complexes of (A) series 1, (B) series 2, (C) series 3, (D) series 4, (E) series 5 and (F) series 6 chelators, relative to DFO, Dp44mT and EDTA, on ascorbate oxidation. Chelators at iron-binding equivalent (IBE) ratios of 0.1, 1, and 3 were incubated in the presence of Fe^III (10 µM) and ascorbate (100 µM). The UV-Vis absorbance at 265 nm was recorded after 10 and 40 min, and the difference between the time points was calculated. Results are mean ±SD (3 experiments).

Structure (SMILES)	IC50 [1] [µM]	IC50 [2] [µM]	IC50 [3] [µM]	IC50 [4] [µM]	IC50 [5] [µM]	IC50 [6] [µM]	Ascorbate oxidation compared with controls ([7]; IBE 3)	Ascorbate oxidation (% of the control) ([7]; IBE 0.1) [%]	Ascorbate oxidation (% of the control) ([7]; IBE 1) [%]	Ascorbate oxidation (% of the control) ([7]; IBE 3) [%]
Oc1ccc2cccnc2c1/C=N/NC(=S)N1CCN(c2cnccn2)CC1 [4e]	10.1 ± 0.7	9.44 ± 1.35	4.55 ± 2.52	4.17 ± 1.44	3.49 ± 0.04	9.56 ± 1.44				
CN(C(=S)N/N=C/c1c(O)ccc2cccnc12)C1CCCCC1 [4f]	19 ± 0.5	18.9 ± 3.6	0.46 ± 0.23	> 6.25	13.3 ± 1	9.18 ± 3.68				
CCN1CCN(C(=S)N/N=C/c2cnc3ccccc3n2)CC1 [5a]	6.15 ± 1.28	8.72 ± 1.64	0.11 ± 0.02		1.12 ± 0.03	2.73 ± 1.77				
S=C(N/N=C/c1cnc2ccccc2n1)N1CCN(c2ccccc2)CC1 [5b]	3.92 ± 0.74	2.24 ± 1.47	0.5 ± 0.05	3.44 ± 1.12	6.05 ± 2.73	9.61 ± 0.9				
S=C(N/N=C/c1cnc2ccccc2n1)N1CCN(c2ccccn2)CC1 [5d]	9.4 ± 0.8	9.41 ± 1.04	0.49 ± 0.09	2.33 ± 0.09	1.78 ± 0.77	7.13 ± 0.82	decreased ascorbate oxidation relative to the control			
S=C(N/N=C/c1cnc2ccccc2n1)N1CCN(c2cnccn2)CC1 [5e]	5.73 ± 0.75	8.49 ± 3.05	0.27 ± 0.01	1.98 ± 0.68	3.77 ± 1.71	15.8 ± 5.1	increased levels of ascorbate oxidation			
O=C(O)CN(CCN(CC(=O)O)CC(=O)O)CC(=O)O [EDTA, ethylenediaminetetraacetic acid, reference compound]								208	449	936

Second part, led by results:

IC50 [1] [µM]	IC50 [2] [µM]	IC50 [3] [µM]	IC50 [4] [µM]	IC50 [5] [µM]	Structure (SMILES)	IC50 [6] [µM]	Ascorbate oxidation compared with controls ([7]; IBE 3)	Ascorbate oxidation (% of the control) ([7]; IBE 0.1) [%]	Ascorbate oxidation (% of the control) ([7]; IBE 1) [%]	Ascorbate oxidation (% of the control) ([7]; IBE 3) [%]
> 25	> 25	10.2 ± 6.6	> 6.25	22.1 ± 5.4	CCN1CCN(C(=S)N/N=C/c2ccccc2O)CC1 [6a]	> 25	decreased ascorbate oxidation relative to the control			
9.7 ± 2.5	10.6 ± 1.2	2.6 ± 0.33	5.42 ± 0.64	16.4 ± 4.5	Oc1ccccc1/C=N/NC(=S)N1CCN(c2ccccn2)CC1 [6d]	18.4 ± 1.9	decreased ascorbate oxidation relative to the control			
10.9 ± 0.7	10.7 ± 1	9.83 ± 2.05	> 6.25	19.2 ± 2.5	Oc1ccccc1/C=N/NC(=S)N1CCN(c2cnccn2)CC1 [6e]	> 25				
